Results reported in publication PMC9982066, “Inhibition of Ehrlichia chaffeensis infection by cell-permeable macrocyclic peptides that bind type IV secretion effector Etf-1” (PNAS Nexus, 2023).
Where two headings read alike, the source gives them in different places. Starred links: 1 amine or outer side, 2 acyl side, 3 side chain; linkers in the order of their positions; H or OH if unused. Positions of bridges follow the written chain, without caps; N, C: chain ends. Non-standard residues stand in square brackets, D forms with d. Residues, ends and D or L forms follow the SMILES beside them. Trimesoyl = O=C(c1cc(C(=O)[*:2])cc(C(=O)[*:3])c1)[*:1]; Phe(4-Cl) = N[C@@H](Cc1ccc(Cl)cc1)C(=O)O; 2Nal = N[C@@H](Cc1ccc2ccccc2c1)C(=O)O; d2Nal = N[C@H](Cc1ccc2ccccc2c1)C(=O)O; Phg = N[C@H](C(=O)O)c1ccccc1; d(β3hA) = C[C@@H](N)CC(=O)O; Dap = NC[C@H](N)C(=O)O

Assays:
[1] = serum stability assay (UPLC); assay type: in vitro ADME; conditions: 25% (v/v) in DPBS; 25% human serum, 37°C, after 22 h; read-out: degradation
Procedure: In comparison, the linear peptide Tat (cell-permeable peptide of HIV) was completely degraded within the first 120 min of incubation (Fig. 4B).
Human serum was diluted to 25% (v/v) in sterile DPBS and equilibrated at 37°C for 15 min. Peptides were added to the diluted serum to a final concentration of 20 μM and incubated at 37°C with gentle mixing. At designated time points, 30 μL aliquots were withdrawn and mixed with 30 μL of 15% trichloroacetic acid in MeOH (w/v) and 30 μL of MeCN and stored at 4°C overnight to completely precipitate the serum proteins. Next, each aliquot was centrifuged (15,000g, 5 min, 4°C) and 14 μL of the supernatant was injected in an UPLC equipped with an analytical Waters Acquity UPLC BEH C18 column (1.7 μm, 2.1 mm I.D., 100 mm length) and an inline UV-Vis detector and a single quadrupole mass detector. The column was eluted with a linear gradient of 20–50% MeCN in ddH2O containing 0.1% TFA. A UV/Vis detector at 214 nm and the mass spec quantifying the ion counts corresponding to the [M + 3H]^3+ ion of the analytes were used to analyze the samples. The area under the peak of interest was obtained by integration, normalized to that of the peptide at t = 0, and plotted as a function of the incubation time to determine the serum half-life of the peptide.

BECN1 binding to Etf-1 = assay: streptavidin magnetic beads pull-down of BECN1 with biotin-Etf-1, Western blot; assay type: biochemical; conditions: 10 µM peptide; for BECN1/Etf-1 Ratio: band intensities, DMSO control set as 1, Fig. 8B
Procedure: Fig. 8.
Streptavidin magnetic beads (15 µL, Pierce, Rockford, IL, USA) were washed with 1 mL of Bind/Wash buffer (25 mM Tris, pH 7.4; 250 mM NaCl, 0.1% Tween 20), and incubated with 0.15 µg ([…] final concentration) of biotinylated full-length Etf-1 protein in bind/wash buffer at 4°C overnight with end-to-end rotation. Beads were washed three times with Bind/Wash buffer, then incubated with Etf-1-binding macrocyclic peptides (10 µM) or DMSO control in Bind/Wash buffer at room temperature for 2 h. […] Beads were washed three times, and proteins were eluted from the beads with 50 µL of 2× SDS-sample buffer. […] Reacting bands were visualized with enhanced chemiluminescence by incubating the membrane with LumiGLO chemiluminescent reagent (Thermo Fisher Scientific). Images were captured by Amersham Imager 680 (GE Healthcare) and densitometry analysis was performed using ImagQuaNT (GE Healthcare). In each specimen, band intensities were normalized against those of actin as the loading control, and the ratios of the treatment group to the control group were calculated with the value in the control groups arbitrarily set as 1.0.

E. chaffeensis [2] = assay: morphological examination of E. chaffeensis infection of THP-1 cells by Diff-Quik staining; conditions: for E. chaffeensis infection (numbers and sizes of morulae): THP-1 cells, Fig. S4 (with Figs. 5, S3)
[3] = LDH release assay (plasma membrane damage); assay type: cell-based; conditions: Fig. S2
Procedure: LDH release assay (Promega) was performed to assess the level of plasma membrane damage in a cell population by these compounds. […] Control wells contained 10 μL of lysis buffer, cell-free complete growth media, or positive LDH control. Following incubation at 37°C and 5% CO2 for 45 to 75 min, the culture was centrifuged and 50 μL of the growth medium was withdrawn from each well, transferred to a clear 96-well plate, mixed with 50 μL of LDH substrate mixture, and incubated at RT for 30 min with gentle mixing. Finally, 50 μL of 1 N HCl was added to each well, and the absorbances at 490 and 680 nm were immediately measured on a Tecan Infinite M1000 plate reader. Relative membrane leakage was calculated and plotted using GraphPad Prism v8.0.

Etf-1 [4] = molecular target: T1, Etf-1 (Ehrlichia chaffeensis, UniProt Q2GG12); assay: biochemical; assay type: binding; conditions: for competition for Etf-1 binding: unlabeled competitor peptides vs FAM-B7-133-8
T1 sequence (Q2GG12 entry or part of it): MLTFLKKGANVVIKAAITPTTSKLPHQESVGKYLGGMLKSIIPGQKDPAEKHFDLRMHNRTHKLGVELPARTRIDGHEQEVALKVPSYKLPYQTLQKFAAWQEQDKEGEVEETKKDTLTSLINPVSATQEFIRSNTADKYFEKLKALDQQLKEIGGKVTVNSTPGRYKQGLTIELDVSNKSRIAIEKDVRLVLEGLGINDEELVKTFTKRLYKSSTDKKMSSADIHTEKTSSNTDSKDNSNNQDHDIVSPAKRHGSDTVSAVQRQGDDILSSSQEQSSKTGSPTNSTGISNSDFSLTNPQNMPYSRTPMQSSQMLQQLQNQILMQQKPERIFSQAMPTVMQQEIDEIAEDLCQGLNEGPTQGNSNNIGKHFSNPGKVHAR
Procedure: Fig. 2. Determination of binding affinity of Etf-1-binding peptides by FP assay. […] FAM-labeled peptide (50 nM) was incubated with serially diluted Etf-1 (starting from 25–30 μM in PBS, pH 7.4, supplemented with 5 mM DTT and 0.01% Triton X-100) for 1 h at RT. FP values were measured on a Tecan Infinite M1000 Pro plate reader. Titration curves (n ≥ 3) were fitted using GraphPad Prism and analyzed with TraceDrawer to calculate dissociation constants (KD). […] Data were analyzed using GraphPad Prism and fitted to a four-parameter variable slope equation to determine IC50 values.
Serial dilutions of competitor peptide (0-20 μM) were prepared from DMSO stock solutions into PBS containing 0.01% Triton-X100 and 2 mM TCEP and added to aliquots of the equilibrated Etf-1/probe solution. After incubation for 1 h in the dark and with gentle mixing, 20 μL of each sample was transferred into 384-well black-on-black microplates and FP was measured using a TECAN Infinite M1000 plate reader. Data were analyzed using GraphPad PRISM ver. 8.0 and fit to a four-parameter variable slope equation to determine IC50 values. IC50 values reported are the mean ± SD of n = 2–4 independent experiments.

E. chaffeensis [5] = assay: E. chaffeensis infection of THP-1 cells, qPCR of 16S rRNA gene normalized to human actin; assay type: cell-based, Ehrlichia chaffeensis; conditions: for inhibition of E. chaffeensis infection: 10 μM, 2 days, vs DMSO control
THP-1 cells = assay: CellTiter-Glo luminescent cell viability assay; conditions: 20 μM, 2-day treatment
From the text: THP-1 (human promyelocytic leukemia) cells are widely used as E. chaffeensis infection studies of human monocytes in vitro, since initial characterization of infection ([31]).
Fig. 4. Cytotoxicity and proteolytic stability of Etf-1-binding peptides. (A) Effect of Etf-1-binding peptides on the viability of THP-1 cells as determined by CellTiter-Glo luminescent assay. Relative luminescence was plotted as function of the peptide concentration, with the cell viability of DMSO control group set as 100%. (B) Plot of the amount of intact peptide remaining as a function of the incubation time in 25% human serum. All values are normalized to that of peptide at time 0 (100%).
Cytotoxicity of Etf-1-binding peptides was examined by CellTiter-Glo luminescent cell viability assay (Promega, Madison, WI, USA). THP-1 cells were seeded in a transparent 96-well plate at a density of 5 × 10^3 cells/well (100 μL in each well) in RPMI-1640 containing 10% FBS and 1% antibiotics and cultured overnight. Etf-1-binding peptides were serially diluted in DPBS from a DMSO stock and added to the cells with the final concentration of 0–25 μM and a constant final concentration of 0.5% DMSO (v/v). After incubation at 37°C with 5% CO2 for 46 h, the plate was removed and pre-equilibrated to RT before the addition of 100 μL of the CellTiter-Glo 2.0 reagent to each well. The plate was incubated for 15 min on a rotary shaker in the dark, and the luminescence was detected (1-s integration time) on a Tecan Infinite M1000 Pro microplate reader. Relative luminescence was plotted as function of the peptide concentration, with the cell viability of DMSO control group set as 100%.

Etf-1-GFP = assay: mitochondrial localization of ectopically expressed Etf-1-GFP in RF/6A cells; assay type: cell-based, Ehrlichia chaffeensis; conditions: 10 μM, 2 days
Procedure: For mitochondria localization analysis, RF/6A cells were seeded onto a cover glass in a 12-well plate for 3 h, then infected with E. chaffeensis at ∼30 MOI. Alternatively, cells were transfected with Etf-1-GFP or Etf-1-DsRed plasmids using Fugene HD (Promega) or by electroporation at 100 V and 1,000 µF using the Gene Pulser Xcell System (BioRad) according to the manufacturers’ instructions ([16]). […] To examine the roles of macrocyclic peptides on Etf-1 localization on E. chaffeensis inclusions, infected RF/6A cells were treated with 10 μM peptides at 3 h pi for 2 days. At 2 days pi or pt, cells were washed 3 times with PBS, then fixed in 4% PFA for 20 min. Native Etf-1 and mitochondria marker cytochrome C proteins were labeled with rabbit anti-Etf-1 IgG and mouse anti-cytochrome C, then with AF488-conjugated goat anti-rabbit and anti-mouse secondary antibodies in PGS (PBS with 0.1% gelatin and 0.1% saponin) for 1 h each at RT. Host-cell and Ehrlichial DNAs were stained with 300 nM DAPI, and fluorescence with differential interference contrast images were observed and captured with a DeltaVision deconvolution microscope (Applied Precision, Issaquah, WA, USA). Percentages of Etf-1 protein colocalization with macrocyclic peptides or E. chaffeensis inclusions were quantified by counting 10–20 cells per group from three independent experiments.

Etf-1 [6] = molecular target: T1, Etf-1; assay: FP assay of Etf-1 binding with FAM-labeled peptides

SMILES | metabolised at 22 h, 20 µM [1] [%] | disruption of BECN1 binding to Etf-1 (BECN1 binding to Etf-1; compared to DMSO control) | BECN1/Etf-1 Ratio (BECN1 binding to Etf-1) | cytotoxicity (cell lysis in treated groups) (E. chaffeensis [2]) | E. chaffeensis infection (numbers and sizes of morulae) (E. chaffeensis [2]) | release of lactate dehydrogenase (LDH) [3] | IC50 (Etf-1 [4]) [nM] | competition for Etf-1 binding (Etf-1 [4]) | inhibition of E. chaffeensis infection (E. chaffeensis [5]) | dose dependence of inhibition of E. chaffeensis infection (E. chaffeensis [5]; 1, 5, and 10 μM) | inhibition of E. chaffeensis infection compared with peptide B7 (or B7-16) (E. chaffeensis [5]; THP-1 cells) | cell viability (THP-1 cells) | cytotoxicity (cell lysis in treated groups) (E. chaffeensis [2]; THP-1 host cells) | effect on mitochondrial localization of Etf-1-GFP (Etf-1-GFP) | Kd (Etf-1 [6]) [nM]
CC(C)C[C@H]1NC(=O)[C@H]2CCCN2C(=O)C[C@@H](C)NC(=O)[C@H](CCC(N)=O)NC(=O)[C@@H](Cc2ccc3ccccc3c2)NC(=O)[C@H](Cc2ccc(O)cc2)NC(=O)c2cc3cc(c2)C(=O)NC[C@H](NC1=O)C(=O)N[C@@H](Cc1ccc(Cl)cc1)C(=O)N[C@H](Cc1ccc2ccccc2c1)C(=O)N[C@H](CCCNC(=N)N)C(=O)N[C@@H](CCCNC(=N)N)C(=O)N[C@H](CCCNC(=N)N)C(=O)N[C@@H](CCCNC(=N)N)C(=O)N[C@H](C(N)=O)CNC3=O [Peptide B7-133-8, TMA-Tyr-nal-Gln-homoAla-pro-leu-Dap-4-ClPhe-nal-arg-Arg-arg-Arg-Dap] (Y[d2Nal]Q[d(β3hA)][dP][dL][Dap][Phe(4-Cl)][d2Nal][dR]R[dR]R[Dap]-NH2; linker N-7-14 via Trimesoyl) | < 20 | disrupted BECN1 binding to Etf-1 | 0.19 | certain degrees of cytotoxicity | significantly inhibited | significant release of lactate dehydrogenase | 110 ± 20 | Competition for Etf-1 binding was observed | significantly inhibited | dose-dependent manner | significantly more potent inhibition |  |  |  | 
CC(C)C[C@H]1NC(=O)[C@H](c2ccccc2)NC(=O)[C@H](CO)NC(=O)[C@@H](Cc2ccc3ccccc3c2)NC(=O)[C@@H](CC(N)=O)NC(=O)[C@H](Cc2ccc(O)cc2)NC(=O)c2cc3cc(c2)C(=O)NC[C@H](NC(=O)[C@@H](CC(C)C)NC1=O)C(=O)N[C@@H](Cc1ccc(Cl)cc1)C(=O)N[C@H](Cc1ccc2ccccc2c1)C(=O)N[C@H](CCCNC(=N)N)C(=O)N[C@@H](CCCNC(=N)N)C(=O)N[C@H](CCCNC(=N)N)C(=O)N[C@@H](CCCNC(=N)N)C(=O)N[C@H](C(N)=O)CNC3=O [Peptide B7-131-1, TMA-Tyr-asn-nal-Ser-Phg-leu-leu-Dap-4-ClPhe-nal-arg-Arg-arg-Arg-Dap] (Y[dN][d2Nal]S[Phg][dL][dL][Dap][Phe(4-Cl)][d2Nal][dR]R[dR]R[Dap]-NH2; linker N-8-15 via Trimesoyl) | < 20 |  |  |  | significantly inhibited | significant release of lactate dehydrogenase |  | Competition for Etf-1 binding was observed | significantly inhibited |  |  | greater loss of cell viability | certain degrees of cytotoxicity |  | 
C[C@H]1NC(=O)[C@H](CO)NC(=O)[C@@H](CCC(=O)O)NC(=O)c2cc3cc(c2)C(=O)NC[C@H](NC(=O)[C@H](CO)NC(=O)[C@H](Cc2c[nH]cn2)NC(=O)[C@@H](Cc2ccccc2)NC1=O)C(=O)N[C@H](Cc1ccccc1)C(=O)N[C@@H](Cc1ccc2ccccc2c1)C(=O)N[C@@H](CCCNC(=N)N)C(=O)N[C@H](CCCNC(=N)N)C(=O)N[C@@H](CCCNC(=N)N)C(=O)N[C@H](CCCNC(=N)N)C(=O)N[C@H](C(N)=O)CNC3=O [Peptide C17, TMA-glu-Ser-ala-phe-His-Ser-Dap-phe-Nal-Arg-arg-Arg-arg-Dap] ([dE]S[dA][dF]HS[Dap][dF][2Nal]R[dR]R[dR][Dap]-NH2; linker N-7-14 via Trimesoyl) |  |  | 1.17 |  | did not inhibit |  |  |  | no effect |  |  |  |  | neither peptide B7 nor C17 affected mitochondrial localization | > 25000
